Our source for the Ki values is ChEMBL document CHEMBL1153979, “Inhibition of carbonic anhydrase isozymes with benzene sulfonamides incorporating thio, sulfinyl and sulfonyl glycoside moieties” (Bioorg Med Chem Lett, 2009).

The target in the test is Carbonic anhydrase 9 (Homo sapiens, UniProt Q16790).
`NS(=O)(=O)c1ccc(-n2cc(CS(=O)(=O)[C@@H]3O[C@H](CO)[C@@H](O)[C@H](O)[C@H]3O)nn2)cc1` showed a Ki of 9.5 nM. `NS(=O)(=O)c1ccc(-n2cc(C[S+]([O-])[C@@H]3O[C@H](CO)[C@@H](O)[C@H](O)[C@H]3O)nn2)cc1` (stereo not given in full) displayed a Ki of 9.8 nM. The value for `CC(=O)OC[C@H]1O[C@@H](SCc2cn(-c3ccc(S(N)(=O)=O)cc3)nn2)[C@H](OC(C)=O)[C@@H](OC(C)=O)[C@@H]1OC(C)=O` was 8.6 nM. In the case of `NS(=O)(=O)c1ccc(-n2cc(C[S+]([O-])[C@@H]3O[C@H](CO)[C@H](O)[C@H](O)[C@H]3O)nn2)cc1` (stereo not given in full), the Ki came out at 8 nM. In the case of `NS(=O)(=O)c1ccc(-n2cc(CS[C@@H]3O[C@H](CO)[C@H](O)[C@H](O)[C@H]3O)nn2)cc1` it was 6.1 nM; in that of `NS(=O)(=O)c1ccc(-n2cc(CS[C@@H]3O[C@H](CO)[C@@H](O)[C@H](O)[C@H]3O)nn2)cc1`, 257 nM; in that of `CC(=O)OC[C@H]1O[C@@H](S(=O)(=O)Cc2cn(-c3ccc(S(N)(=O)=O)cc3)nn2)[C@H](OC(C)=O)[C@@H](OC(C)=O)[C@@H]1OC(C)=O`, 9.3 nM. The value for `CC(=O)OC[C@H]1O[C@@H](SCc2cn(-c3ccc(S(N)(=O)=O)cc3)nn2)[C@H](OC(C)=O)[C@@H](OC(C)=O)[C@H]1OC(C)=O` was 8.6 nM; that for `NS(=O)(=O)c1ccc(-n2cc(CS(=O)(=O)[C@@H]3O[C@H](CO)[C@H](O)[C@H](O)[C@H]3O)nn2)cc1` was 8.1 nM.

Compound `CC(=O)OC[C@H]1O[C@@H](S(=O)(=O)Cc2cn(-c3ccc(S(N)(=O)=O)cc3)nn2)[C@H](OC(C)=O)[C@@H](OC(C)=O)[C@H]1OC(C)=O` had a Ki of 7.5 nM.
